Test results reported in patent US9169241B2, “Quinolinyloxyphenylsulfonamides” (Max-Planck-Gesellschaft Zur Forderung der Wissenschaften …, priority 2009, dated 2015).
Read-outs that look alike come from different tables or passages of the source.

What was measured:
Format in all cases: cell-based
[1] = tested on: U118; assay: Matrigel outgrowth assay/branching assay; settings: Table Vb, read-out: Total branching inhibition in Matrigel U118
How it was run: (§1)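 Step one: Matrigel (3 mg/ml) is set for 1 h at 37° C. Step two: 5000 cells per well go on in medium with compound (0.78–3.125 μM) or DMSO. Step three: images at 48, 72 and 96 h are scored for complete loss of branching.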

[2] = tested on: SF126; assay: Matrigel outgrowth assay/branching assay; settings: Homo sapiens, SF-126, Table Vb, read-out: Total branching inhibition in Matrigel SF126
How it was run: as §1

[3] = tested on: A172; assay: Matrigel outgrowth assay/branching assay; settings: Homo sapiens, A 172, Table Vb, read-out: Total branching inhibition in Matrigel A172
How it was run: as §1

[4] = tested on: C8161; assay: Apoptosis assay (Cellomics, nucleus condensation); settings: Homo sapiens, Table III, read-out: Apoptosis induction in C8161
How it was run: (§2)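 Readout: per-nucleus Hoechst 33342 fluorescence intensity and its population variation, plus number of detected cells, by automated CCD imaging. Live cells, 5000/well; compound 0.39–12.5 μM (twofold series) vs DMSO, read at 24 h and 48 h.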

[5] = tested on: U118; assay: Apoptosis assay (Cellomics, nucleus condensation); settings: Table III, read-out: Apoptosis induction in U118
How it was run: as §2

[6] = tested on: Hs578T; assay: Apoptosis assay (Cellomics, nucleus condensation); settings: Homo sapiens, Hs-578T, Table III, read-out: Apoptosis induction in Hs578T
How it was run: as §2

[7] = tested on: U138; assay: Apoptosis assay (Cellomics, nucleus condensation); settings: Table III, read-out: Apoptosis induction in U138
How it was run: as §2

[8] = tested on: SF763; assay: Apoptosis assay (Cellomics, nucleus condensation); settings: Table III, read-out: Apoptosis induction in SF763
How it was run: as §2

[9] = tested on: viable cells in culture; assay: Cell viability assay at 10 μM (CellTiter-Glo, Table VII); settings: compound 10 μM, 72 h;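 further: graded A 0-20%; B 21-40%; C 41-60%; D over 60% viable cells relative to DMSO control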
How it was run: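 Viable cell number was measured with the CellTiter-Glo Luminescent Cell Viability Assay (Promega), following the manufacturer's protocol, which quantifies ATP as a marker of metabolically active cells. In 96-well plates, 1000 cells/well in 100 μl medium were exposed to compound at 10 μM, or to DMSO control, for 72 h. Values were calculated relative to DMSO-control ATP.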

[10] = Homo sapiens, HCT-116, HCT116 def, read-out: percentage (%) of viable cells HCT 116def
[11] = Homo sapiens, HCT-116, HCT116 wt, read-out: percentage (%) of viable cells HCT 116wt
[12] = Homo sapiens, HT-29, HT29, read-out: percentage (%) of viable cells HT29
[13] = Homo sapiens, NCI-H358, H358, read-out: percentage (%) of viable cells H358
[14] = Homo sapiens, NCI-H1650, H1650, read-out: percentage (%) of viable cells H1650
[15] = Homo sapiens, NCI-H1666, H1666, read-out: percentage (%) of viable cells H1666
[16] = Homo sapiens, NCI-H1975, H1975, read-out: percentage (%) of viable cells H1975
[17] = Homo sapiens, NCI-H1993, H1993, read-out: percentage (%) of viable cells H1993
[18] = Homo sapiens, A549, read-out: percentage (%) of viable cells A549
[19] = Homo sapiens, HCC827, read-out: percentage (%) of viable cells HCC827
[20] = Homo sapiens, SW480, read-out: percentage (%) of viable cells SW480
[21] = RKO, read-out: percentage (%) of viable cells RKO

| Structure (SMILES) | IC100 [1] | IC100 [2] | IC100 [3] | further results |
| --- | --- | --- | --- | --- |
| COc1cc2c(Oc3ccc(NS(=O)(=O)c4c(Cl)cccc4Cl)cc3F)ccnc2cc1OCCCN1CCCC(C)C1 (stereo not shown) [Example 51, 2,6-Dichloro-N-(3-fluoro-4-{6-methoxy-7-[3-(3-methyl-piperidin-1-yl)-propoxy]-quinolin-4-yloxy}-phenyl)-benzenesulfonamide] | ≤ 12.5 µM | ≤ 12.5 µM | > 12.5 µM |  |
| COc1cc2c(Oc3ccc(NS(=O)(=O)c4ccccc4OC(F)(F)F)cc3F)ccnc2cc1OCCCN1CCCC(C)C1 (stereo not shown) [Example 45, N-(3-Fluoro-4-{6-methoxy-7-[3-(3-methyl-piperidin-1-yl)-propoxy]-quinolin-4-yloxy}-phenyl)-2-trifluoromethoxy-benzenesulfonamide] | ≤ 12.5 µM | ≤ 12.5 µM | > 12.5 µM |  |
| COc1cc2c(Oc3ccc(NS(=O)(=O)c4ccccc4OC(F)(F)F)cc3F)ccnc2cc1OCCCN(C)C [Example 179, N-{4-[7-(3-Dimethylamino-propoxy)-6-methoxy-quinolin-4-yloxy]-3-fluoro-phenyl}-2-trifluoromethoxy-benzenesulfonamide] | ≤ 12.5 µM | ≤ 12.5 µM | > 12.5 µM |  |
| COc1cc2c(Oc3ccc(NS(=O)(=O)c4ccc(F)c(F)c4F)cc3F)ccnc2cc1OCCCN1CCCC(C)C1 (stereo not shown) [Example 49, 2,3,4-Trifluoro-N-(3-fluoro-4-{6-methoxy-7-[3-(3-methyl-piperidin-1-yl)-propoxy]-quinolin-4-yloxy}-phenyl)-benzenesulfonamide] | > 12.5 µM | > 12.5 µM | > 12.5 µM |  |
| COC(=O)c1sccc1S(=O)(=O)Nc1ccc(Oc2ccnc3cc(OCCCN(C)C)c(OC)cc23)c(F)c1 [Example 184, 3-{4-[7-(3-Dimethylamino-propoxy)-6-methoxy-quinolin-4-yloxy]-3-fluoro-phenylsulfamoyl}-thiophene-2-carboxylic acid methyl ester] | ≤ 12.5 µM | ≤ 12.5 µM | > 12.5 µM |  |
| COC(=O)c1sccc1S(=O)(=O)Nc1ccc(Oc2ccnc3cc(OCCCN4CCOCC4)c(OC)cc23)c(F)c1 [Example 157, 3-{3-Fluoro-4-[6-methoxy-7-(3-morpholin-4-yl-propoxy)-quinolin-4-yloxy]-phenylsulfamoyl}-thiophene-2-carboxylic acid methyl ester] | > 12.5 µM | ≤ 12.5 µM | > 12.5 µM |  |
| COc1cc2c(Oc3ccc(NS(=O)(=O)c4c(F)cccc4F)cc3F)ccnc2cc1OCCCN(C)C [Example 178, N-{4-[7-(3-Dimethylamino-propoxy)-6-methoxy-quinolin-4-yloxy]-3-fluoro-phenyl}-2,6-difluoro-benzenesulfonamide] | ≤ 12.5 µM | ≤ 12.5 µM | > 12.5 µM |  |
| COc1cc2c(Oc3c(Cl)cc(NS(=O)(=O)c4ccccc4C(F)(F)F)cc3Cl)ccnc2cc1OCCCN1CCC(C)CC1 [Example 210, N-(3,5-Dichloro-4-{6-methoxy-7-[3-(4-methyl-piperidin-1-yl)-propoxy]-quinolin-4-yloxy}-phenyl)-2-trifluoromethyl-benzenesulfonamide] | ≤ 12.5 µM | ≤ 12.5 µM | > 12.5 µM |  |
| COc1cc2c(Oc3ccc(NS(=O)(=O)c4c(Cl)cccc4Cl)cc3F)ccnc2cc1OCCCN1CCCCC1 [Example 6, 2,6-Dichloro-N-{3-fluoro-4-[6-methoxy-7-(3-piperidin-1-yl-propoxy)-quinolin-4-yloxy]-phenyl}-benzenesulfonamide] | ≤ 12.5 µM | ≤ 12.5 µM | > 12.5 µM |  |
| COc1cc2c(Oc3ccc(NS(=O)(=O)c4c(Cl)cccc4Cl)cc3F)ccnc2cc1OCCN1CCOCC1 [Example 104, 2,6-Dichloro-N-{3-fluoro-4-[6-methoxy-7-(2-morpholin-4-yl-ethoxy)-quinolin-4-yloxy]-phenyl}-benzenesulfonamide] | > 12.5 µM | > 12.5 µM | > 12.5 µM |  |
| COc1cc2c(Oc3ccc(NS(=O)(=O)c4ccccc4C(F)(F)F)cc3F)ccnc2cc1OCCCN1CCN(C)CC1 [Example 24, N-(3-Fluoro-4-{6-methoxy-7-[3-(4-methyl-piperazin-1-yl)-propoxy]-quinolin-4-yloxy}-phenyl)-2-trifluoromethyl-benzenesulfonamide] | ≤ 12.5 µM | ≤ 12.5 µM | ≤ 12.5 µM | IC50 [4]: ≤ 12.5 µM |
| COc1cc2c(Oc3ccc(NS(=O)(=O)c4ccccc4[N+](=O)[O-])cc3F)ccnc2cc1OCCCN1CCCCC1 [Example 7, N-{3-Fluoro-4-[6-methoxy-7-(3-piperidin-1-yl-propoxy)-quinolin-4-yloxy]-phenyl}-2-nitro-benzenesulfonamide] | ≤ 12.5 µM | ≤ 12.5 µM | > 12.5 µM | IC50 [5]: 12.5 to 50 µM; IC50 [6]: ≤ 12.5 µM; IC50 [7]: ≤ 12.5 µM; IC50 [4]: ≤ 12.5 µM; IC50 [8]: ≤ 12.5 µM; viability at 10 µM [9, 10]: 21 to 40%; viability at 10 µM [9, 11]: 0 to 20%; viability at 10 µM [9, 12]: 0 to 20%; viability at 10 µM [9, 13]: 0 to 20%; viability at 10 µM [9, 14]: 0 to 20%; viability at 10 µM [9, 15]: 21 to 40%; viability at 10 µM [9, 16]: 21 to 40%; viability at 10 µM [9, 17]: 21 to 40%; viability at 10 µM [9, 18]: 41 to 60%; viability at 10 µM [9, 19]: 0 to 20%; viability at 10 µM [9, 20]: 0 to 20%; viability at 10 µM [9, 21]: 0 to 20% |
| COc1cc2c(Oc3ccc(NS(=O)(=O)c4ccccc4OC(F)(F)F)cc3F)ccnc2cc1OCCCN1CCCCC1 [Example 78, N-{3-Fluoro-4-[6-methoxy-7-(3-piperidin-1-yl-propoxy)-quinolin-4-yloxy]-phenyl}-2-trifluoromethoxy-benzenesulfonamide] | > 12.5 µM | ≤ 12.5 µM | > 12.5 µM |  |
| COc1cc2c(Oc3ccc(NS(=O)(=O)c4cccc(Cl)c4F)cc3F)ccnc2cc1OCCCN1CCCC(C)C1 (stereo not shown) [Example 54, 3-Chloro-2-fluoro-N-(3-fluoro-4-{6-methoxy-7-[3-(3-methyl-piperidin-1-yl)-propoxy]-quinolin-4-yloxy}-phenyl)-benzenesulfonamide] | > 12.5 µM | ≤ 12.5 µM | > 12.5 µM |  |
| COc1cc2c(Oc3ccc(NS(=O)(=O)c4cc(F)ccc4F)cc3F)ccnc2cc1OCCCN1CCN(C)CC1 [Example 12, 2,5-Difluoro-N-(3-fluoro-4-{6-methoxy-7-[3-(4-methyl-piperazin-1-yl)-propoxy]-quinolin-4-yloxy}-phenyl)-benzenesulfonamide] | ≤ 12.5 µM | ≤ 12.5 µM | ≤ 12.5 µM | IC50 [4]: 12.5 to 50 µM; viability at 10 µM [9, 10]: 21 to 40%; viability at 10 µM [9, 11]: 21 to 40%; viability at 10 µM [9, 12]: 21 to 40%; viability at 10 µM [9, 13]: 0 to 20%; viability at 10 µM [9, 14]: 21 to 40%; viability at 10 µM [9, 15]: 41 to 60%; viability at 10 µM [9, 16]: 41 to 60%; viability at 10 µM [9, 17]: 41 to 60%; viability at 10 µM [9, 18]: > 60%; viability at 10 µM [9, 19]: 21 to 40%; viability at 10 µM [9, 20]: 21 to 40%; viability at 10 µM [9, 21]: 0 to 20% |
| COc1cc2c(Oc3ccc(NS(=O)(=O)c4cc(F)ccc4F)cc3Cl)ccnc2cc1OCCCN1CCN(C)CC1 [Example 112, N-(3-Chloro-4-{6-methoxy-7-[3-(4-methyl-piperazin-1-yl)-propoxy]-quinolin-4-yloxy}-phenyl)-2,5-difluoro-benzenesulfonamide] | ≤ 12.5 µM | ≤ 12.5 µM | ≤ 12.5 µM |  |
| COc1cc2c(Oc3ccc(NS(=O)(=O)c4c(Cl)cccc4Cl)cc3F)ccnc2cc1OCCCN(C)C [Example 181, 2,6-Dichloro-N-{4-[7-(3-dimethylamino-propoxy)-6-methoxy-quinolin-4-yloxy]-3-fluoro-phenyl}-benzenesulfonamide] | ≤ 12.5 µM | ≤ 12.5 µM | > 12.5 µM |  |
